From PubChem BioAssay (NCI)
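Dose response: 5 concentrations. Exposure: 48 h. Format: 96-well plates. Endpoint: linear interpolation; highest concentration if not reached. GI50 marks 50% less growth. At the TGI there is no net growth.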

Tests used:
Assay in all cases: NCI anticancer screen, dose series, 48 h
UACC-257 melanoma = test system: UACC-257 melanoma
HCT-15 colon = test system: HCT-15 colon
IGROV1 ovarian = test system: IGROV1 ovarian
UACC-62 melanoma = test system: UACC-62 melanoma
OVCAR-4 ovarian = test system: OVCAR-4 ovarian
A549 NSCLC = test system: A549 NSCLC
786-0 renal = test system: 786-0 renal
SK-MEL-2 melanoma = test system: SK-MEL-2 melanoma
SR leukemia = test system: SR leukemia
NCI/ADR-RES ovarian = test system: NCI/ADR-RES ovarian

Compound	GI50 (UACC-257 melanoma) [µM]	TGI (UACC-257 melanoma) [µM]	GI50 (HCT-15 colon) [µM]	TGI (HCT-15 colon) [µM]	GI50 (IGROV1 ovarian) [µM]	TGI (IGROV1 ovarian) [µM]	GI50 (UACC-62 melanoma) [µM]	TGI (UACC-62 melanoma) [µM]	GI50 (OVCAR-4 ovarian) [µM]	TGI (OVCAR-4 ovarian) [µM]	GI50 (A549 NSCLC) [µM]	TGI (A549 NSCLC) [µM]	GI50 (786-0 renal) [µM]	TGI (786-0 renal) [µM]	GI50 (SK-MEL-2 melanoma) [µM]	TGI (SK-MEL-2 melanoma) [µM]	GI50 (SR leukemia) [µM]	GI50 (NCI/ADR-RES ovarian) [µM]	TGI (NCI/ADR-RES ovarian) [µM]	TGI (SR leukemia) [µM]
Cn1c([N+](=O)[O-])cnc1/C=C1\Oc2ccc(Cl)cc2C1=O	1.95	5.2	0.251	1.04	1.22	8.29	1.24	3.27	1.7	5.71	1.95	5.88	0.942	3.39	0.901	3.04	0.0676	0.534	> 22.5	–
Cc1cccc(NC(=O)c2sc3nc4c(cc3c2N)CCC4)c1C	2.67	46.6	0.264	21.3	0.766	53	0.267	21	1.33	22.8	0.453	13.5	0.367	14.3	0.31	17.9	0.191	0.279	10.3	10.2
C/C=C\C(C)=C/C(C)C(=O)CC(O)CC1CC(=O)NC(=O)C1 (centres undefined)	–	> 100	–	> 100	–	> 100	–	> 64.1	–	> 100	–	> 100	–	> 100	–	> 100	–	–	48.2	> 63.1
COC(=O)c1cc2c([nH]c3ccccc32)c(-c2nc3cc(N(S(=O)(=O)c4ccc(C)cc4)S(=O)(=O)c4ccc(C)cc4)c(OC)cc3cc2CO)n1	> 100	> 100	> 100	> 100	> 100	> 100	> 100	> 100	> 100	> 100	> 100	> 100	32.1	87.8	> 100	> 100	1.28	> 100	> 100	3.48
CN(C)CCCn1c2c(c3ccc([N+](=O)[O-])cc3c1=O)C(=O)c1ccccc1-2	38.1	> 100	10.6	35.8	4.98	> 100	7.13	24.6	27.6	> 100	17.5	46.1	4.75	21.2	> 100	> 100	1.98	7.22	34.5	> 100
N#CC1=C(N)Oc2c(ccc3ccccc23)C1c1ccccc1Cl (centres undefined)	11	38.2	0.183	11.4	0.455	15.4	0.677	17.7	1.13	20.4	0.476	26.7	0.754	16.4	0.558	18	0.107	0.133	5.62	22.1
Nc1cc2[nH]c(=O)c3cc(Cl)ccc3c2cc1Cl	–	53.4	–	> 100	–	23.5	–	> 100	–	> 100	–	44.7	–	> 100	–	> 100	–	–	86.1	> 100
COc1ccc(/C(C)=C(\c2ccc(Cl)cc2)c2ccc(OCCN3CCCCC3)cc2)cc1F	3.1	7.04	0.943	3.37	3.16	9.37	3.68	8.9	2.99	8.99	4.43	> 16.7	2.69	5.3	3.53	7.65	1.8	3.53	9.67	> 16.7
CN(C)c1ccc(/C=C/C(=O)c2ccc(Nc3nc(Nc4ccc(F)cc4)nc(Nc4ccc(Cl)cc4)n3)cc2)cc1	11	54.7	4.66	> 100	3.02	22.1	14	37.9	10.7	> 100	5.03	35.1	2.71	14.1	4.6	18.6	1.06	3.56	33.4	3.67
Cc1cc(N2CCOCC2)nc(N(CCNc2ccnc3cc(Cl)ccc23)Cc2cccs2)n1	1.88	3.6	1.78	4.05	1.96	4.97	1.9	3.65	2.37	7.59	3.08	12	1.69	3.12	1.99	4.08	1.47	3.45	> 100	3.94
CCOC(=O)C(Cc1ccc(N(CCCl)CCCl)cc1)NC(=O)C(CC(C)C)NC(C)=O (centres undefined)	1.69	5.66	2.22	> 27.8	1.52	4.72	0.659	2.19	1.33	3.97	1.73	25.6	1.38	4.38	2.61	5.13	0.0344	2.14	16.9	6.89
C[As](C)SCC(COC(=O)c1ccccc1)OC(=O)c1ccccc1 (centres undefined)	0.066	1.51	0.0357	1.4	0.918	17.1	0.156	1.37	1.74	> 32.2	1.45	11.3	0.1	0.556	0.4	2.8	0.0241	0.152	0.367	0.183
